Results taken from patent US20170202845A1, “PROPHYLACTIC OR THERAPEUTIC AGENT FOR A POSTERIOR OCULAR DISEASE” (SANTEN PHARMACEUTICAL CO., LTD., priority 2014, published 2017).

Tested on: choroidal neovascularization
Assay: laser-induced rat choroidal neovascularization model
Type: in vivo
Protocol: Usefulness of the present compounds was evaluated using a laser-induced rat choroidal neovascularization model (Invest. Ophthalmol. Vis. Sci., 40(2), 459-466 (1999)).
A rat was generally anesthetized by intramuscular administration of 1 mL/kg of a mixed solution (7:1) comprising a 5% (W/V) ketamine hydrochloride injection solution and a 2% xylazine hydrochloride injection solution. 0.5% (W/V) Tropicamide-0.5% phenylephrine hydrochloride eye drop was dropped into eyes for mydriasis, and photocoagulation was carried out with a krypton laser photocoagulation apparatus. […]
At the 7th day after the photocoagulation, the rat was generally anesthetized by intramuscular administration of 1 mL/kg of a mixed solution (7:1) comprising a 5% (W/V) ketamine hydrochloride injection solution and a 2% xylazine hydrochloride injection solution. […] The spot of photocoagulation with no leakage of fluorescence detected by fluorescein fundus angiography was judged as negative (no neovascularization), and the spot of photocoagulation with leakage of fluorescence was judged as positive. The spot of photocoagulation with slight leakage of fluorescence was judged as positive (neovascularization exists) when 2 or more spots of such a state were detected in one eye. […]

In the case of `CC(=O)N[C@@H]1C[C@H](NC(C)(C)C)CC[C@@H]1N1CC[C@H](Nc2ncnc3cc(C(C)(C)C)nn23)C1=O` [Compound 1b, N-((1R,2S,5R)-5-(tert-butylamino)-2-((S)-3-(7-tert-butylpyrazolo[1,5-a][1,3,5]triazin-4-ylamino)-2-oxopyrrolidin-1-yl)cyclohexyl)acetamide], the “Suppressing rate (%)” value (krypton laser-induced rat choroidal neovascularization, 100 mg/kg orally twice a day for 7 days, fluorescein fundus angiography at 7th day, relative to base administered group) is reported as 66.6% and the “inhibition of choroidal neovascularization (in words)” value (laser-induced rat choroidal neovascularization model animal) is reported as “inhibit choroidal neovascularization”.
